Results on 5 molecules are retold here after patent EP4700023A1, “GLP-1R RECEPTOR AGONIST COMPOUND SALT AND CRYSTAL FORM THEREOF, PREPARATION METHOD THEREFOR AND USE THEREOF” (Chengdu Vincentage Pharma Co., Ltd., priority 2023, dated 2024).

As a reminder, the AUC(0-inf) is total exposure, with the tail of the curve extrapolated. A word on the AUC(0-t): it is exposure summed from dosing to a finite time, without extrapolation to infinity. The Cmax is the peak of the concentration-time curve. As usually defined, the Tmax is the time from dosing to the highest level. What is called half-life is the time in which the quantity being followed falls by half.

Data set [1] can be described thus: Hygroscopicity test method (DVS). In kind it is physicochemical. On the set-up: Sorption / Desorption / Hysteresis: unit not given here. The note with it: for Desorption / Sorption / Hysteresis: onset temperature 24.9°C, first cycle. How it is done: Hygroscopicity test method (DVS): The hygroscopicity of the sample was measured using SMS Intrinsic Plus. The sample was weighed into a sample pan, equilibrated at 25°C until dm/dt was less than 0.002%, and then measured in time mode. The humidity was adjusted from 60%-90%-0%-90%-0% RH, with increments of 10% RH per step, and each humidity level was maintained for 1 hour.

A short description of data set [2]: Purity test after storage in an oven at set temperature (stability). In kind it is physicochemical. The note with it: HPLC; for Purity, Onset: Onset (before storage); for Purity, 80°C (1 day): oven. As for the experimental part:
Purity test: The sample to be tested was dissolved in a methanol solution, and the sample purity was measured by HPLC.

Data set [3] in a line: Compressibility test (tableting, XRPD detection). In kind it is physicochemical. The note with it: compressed into tablets.
Data set [4] can be described thus: Grindability test (mortar, XRPD detection). In kind it is physicochemical. Conditions: for Grindability (mortar 5 min), solid form: XRPD. As for the experimental part:
Grindability test: An appropriate amount of the crystal compound to be tested was placed in a mortar and ground for 2 min and 5 min, followed by XRPD detection.

Data set [5] in a line: Tableting and grinding test (XRPD, FIG. 21 to 25). The data set is classed as physicochemical. The note with it: after tableting, after grinding for 5 minutes and for 2 minutes; FIG. 21 to 23. As for the experimental part:
Grindability test: An appropriate amount of the crystal compound to be tested was placed in a mortar and ground for 2 min and 5 min, followed by XRPD detection. […]

Data set [6] can be described thus: Purity test after storage in an oven at set temperature (stability). In kind it is physicochemical. The note with it: 80°C, 1 day.
Data set [7] in a line: Pharmacokinetic evaluation in rats. In kind it is in vivo. Conditions: in vivo; Rat PK, oral (PO), 10 mg/kg. How it is done:
Rats were used as test animals, and the plasma drug concentrations at different time points after gavage administration of the test sample were measured. The pharmacokinetic behavior of the compound of the present disclosure in rats was studied to evaluate its metabolic characteristics. For each experimental group, 3 rats with similar body weights were selected and orally administered a single dose of 10 mg/kg. […] Pharmacokinetic parameter calculations were performed using metabolic kinetic data analysis software WinNonlin 7.0 by non-compartmental analysis (NCA) based on plasma concentration data.
A test sample with a final preparation concentration (based on the content of the compound of formula I) of 1.0 mg/mL was prepared for oral administration, using a 0.5% CMC Na aqueous solution as the preparation solvent.
Administration: After overnight fasting (12 hours), rats were administered by gavage at a dose of 10 mg/kg.
The blood samples were placed in heparinized sample tubes, and centrifuged at 4°C and 3500 rpm for 10 minutes to separate plasma, which was then stored at -20°C. Food was provided 2 hours after administration.
Determination of the content of the compound to be tested in rat plasma after gavage administration: After thawing plasma samples at room temperature, 300 µL of internal standard (terfenadine 200 ng/mL, acetonitrile) was added to each sample. The mixtures were vortexed for 1 min and then centrifuged at 4°C and 15400 rpm for 10 min. The supernatant was diluted 20-fold with 80% acetonitrile-water and then injected for LC/MS/MS analysis.

Structures can show the parent of a compound that is named as a salt.

Consider `O=C([O-])c1ccc2nc(CN3CCC(c4ccccc4OCc4ccc(Cl)cc4F)CC3)n(C[C@@H]3CCO3)c2c1.[Na+]` [Sodium salt of the compound of formula I, Sodium salt of (S)-2-((4-(2-((4-chloro-2-fluorobenzyl)oxy)phenyl)piperidin-1-yl)methyl)-1-(oxetan-2-aminomethyl)-1H-benzo[d]imidazole-6-carboxylate], for which the “Hygroscopicity (80% RH), description in words” value in data set [1] (80% RH, 25°C, DVS) is “Highly hygroscopic, deliquescent”.

Turning to `O=C(O)c1ccc2nc(CN3CCC(c4ccccc4OCc4ccc(Cl)cc4F)CC3)n(C[C@@H]3CCO3)c2c1` [Crystal form II of the compound of formula I] [(S)-2-((4-(2-((4-Chloro-2-fluorobenzyl)oxy)phenyl)piperidin-1-yl)methyl)-1-(oxetan-2-aminomethyl)-1H-benzo[d]imidazole-6-carboxylic acid], in data set [2], the “Purity, Onset” value was 99.73% and the “Purity, 80°C (1 day)” value stood at 80.43%. In data set [3], the “Compressibility (20 Mp)” value is “Crystal form II, significant reduction in crystallinity”. In data set [4], the “Grindability (mortar 5 min), purity” value is on record as 99.7% and the “Grindability (mortar 5 min), solid form” value is “transformed to amorphous”. For the same molecule, in data set [5], the “Crystallinity after tableting and grinding” value (shortened to “Crystallinity”) is reported as “decreasing crystallinity in different degrees”. Also, the “Solid form after 80°C (1 day)” value in data set [6] is “transformed to amorphous”.

For `O=C(O)c1ccc2nc(CN3CCC(c4ccccc4OCc4ccc(Cl)cc4F)CC3)n(C[C@@H]3CCO3)c2c1` [Crystal form I of the compound of formula I] [(S)-2-((4-(2-((4-Chloro-2-fluorobenzyl)oxy)phenyl)piperidin-1-yl)methyl)-1-(oxetan-2-aminomethyl)-1H-benzo[d]imidazole-6-carboxylic acid], the “Hygroscopicity (80% RH)” value in data set [1] (80% RH, 25°C, DVS) is 2.5%. Further, in data set [1] (80% RH, 25°C, DVS), the “Hygroscopicity (80% RH), description in words” value was “highly hygroscopic”. Moreover, the Desorption in data set [1] (Target humidity 0.0 % P/P0) is 0.013; in data set [1] (Target humidity 10.0 % P/P0), 0.807; in data set [1] (Target humidity 20.0 % P/P0), 1.307; in data set [1] (Target humidity 30.0 % P/P0), 1.588; in data set [1] (Target humidity 40.0 % P/P0), 1.816; in data set [1] (Target humidity 50.0 % P/P0) it was 2.072. Further, the Desorption was 2.286 in data set [1] (Target humidity 60.0 % P/P0), 2.441 in data set [1] (Target humidity 70.0 % P/P0), 2.576 in data set [1] (Target humidity 80.0 % P/P0) and 2.685 in data set [1] (Target humidity 90.0 % P/P0). The Sorption is recorded as 0.019 in data set [1] (Target humidity 0.0 % P/P0); 0.766 in data set [1] (Target humidity 10.0 % P/P0); 1.271 in data set [1] (Target humidity 20.0 % P/P0); 1.541 in data set [1] (Target humidity 30.0 % P/P0); 1.754 in data set [1] (Target humidity 40.0 % P/P0); 1.960 in data set [1] (Target humidity 50.0 % P/P0). For the same molecule, the Sorption in data set [1] (Target humidity 60.0 % P/P0) was 2.161; in data set [1] (Target humidity 70.0 % P/P0) it was 2.344; in data set [1] (Target humidity 80.0 % P/P0), 2.511; in data set [1] (Target humidity 90.0 % P/P0) it was 2.685. Besides, the Hysteresis was found to be 0.042 in data set [1] (Target humidity 10.0 % P/P0); 0.035 in data set [1] (Target humidity 20.0 % P/P0); 0.047 in data set [1] (Target humidity 30.0 % P/P0); 0.062 in data set [1] (Target humidity 40.0 % P/P0); 0.112 in data set [1] (Target humidity 50.0 % P/P0); 0.125 in data set [1] (Target humidity 60.0 % P/P0). Moreover, the Hysteresis in data set [1] (Target humidity 70.0 % P/P0) turned out to be 0.097; in data set [1] (Target humidity 80.0 % P/P0), 0.065. The “Purity, Onset” value in data set [2] is recorded as 99.27%. Also, the “Purity, 80°C (1 day)” value in data set [2] was found to be 91.81%. In addition, the “Compressibility (20 Mp)” value in data set [3] is “Crystal form I, significant reduction in crystallinity”. The “Grindability (mortar 5 min), purity” value in data set [4] amounted to 99.25%. Further, the “Grindability (mortar 5 min), solid form” value in data set [4] was “transformed to amorphous”. The “Crystallinity” value in data set [5] is given as “decreasing crystallinity in different degrees”.

Regarding `O=C(O)c1ccc2nc(CN3CCC(c4ccccc4OCc4ccc(Cl)cc4F)CC3)n(C[C@@H]3CCO3)c2c1` [Crystal form III of the compound of formula I] [(S)-2-((4-(2-((4-Chloro-2-fluorobenzyl)oxy)phenyl)piperidin-1-yl)methyl)-1-(oxetan-2-aminomethyl)-1H-benzo[d]imidazole-6-carboxylic acid], in data set [2], the “Purity, Onset” value came to 99.25% and the “Purity, 80°C (1 day)” value was 83.43%. Also, the “Compressibility (20 Mp)” value in data set [3] is recorded as “Crystal form III, no significant reduction in crystallinity”. In data set [4], the “Grindability (mortar 5 min), purity” value is on record as 98.65% and the “Grindability (mortar 5 min), solid form” value was “transformed to amorphous”. The “Crystallinity” value in data set [5] is “decreasing crystallinity in different degrees”. Besides, the “Solid form after 80°C (1 day)” value in data set [6] is “transformed to amorphous”.

Consider `O=C(O)c1ccc2nc(CN3CCC(c4ccccc4OCc4ccc(Cl)cc4F)CC3)n(C[C@@H]3CCO3)c2c1` [Crystal form A of the monohydrate of the 2-amino-2-(hydroxymethyl)-1,3-propanediol salt of (S)-2-((4-(2-((4-chloro-2-fluorobenzyl)oxy)phenyl)piperidin-1-yl)methyl)-1-(oxetan-2-aminomethyl)-1H-benzo[d]imidazole-6-carboxylate], for which, in data set [7], the area under the curve AUC(0-inf) is 772 ng·h/mL, the AUC(0-t) turned out to be 765 ng·h/mL, the maximum concentration (Cmax) worked out at 410 ng/mL and the time to peak (Tmax) came out at 24.6 min. The molecule further gave a half-life in data set [7] of 95.4 min.
